Measured values taken from US12704502B2, “Methods and systems for determining metabolic poise and capacity of living cells” (AGILENT TECHNOLOGIES, INC., priority 2021, dated 2026).

Tests used:
[1] = test system: Human Peripheral Blood CD4+ T cells
Description: (§1) Uncoupled respiration measurements were measured in adherent cells epithelioid carcinoma Panc-1 cells (ATCC, CRL-1469) with FCCP. Cells were cultured in Dulbecco's Modified Eagle's Medium (DMEM) supplemented with 10% FBS at 37 C, 5% CO2 incubator according to supplier information. Day before the assay, cells were detached using Trypsin-EDTA solution and seeded in XFe96 cell culture miniplates (Agilent) at 10,000 cells/well. Cells were incubated for 18 hr at 37 C, 5% CO2 incubator. To measure OCR, cells were washed, and cell culture medium was replaced by XF DMEM pH 7.4 supplemented with 10 mM glucose, 2 mM glutamine and 1 mM pyruvate.

[2] = test system: epithelioid carcinoma Panc-1 cells; settings: 2 μM FCCP, FIGS. 1A-1C
Description: as §1

[3] = test system: Human Peripheral Blood NK cells; settings: 1.5, 2, 2.5 or 3 μM, FIGS. 12A-12B
Description: NK cells were cultured as described herein (e.g., in Example 1).

FCCP
OCR after the rotenone+antimycin A injection ([1]; T cells, FIGS. 2B, 3B): overestimation of OCR | stability of uncoupled respiration during the 3 min of the measurement ([1]; T cells, after oligomycin, FIGS. 2A, 2C, 3A, 3C): inconsistent uncoupled respiration | maximal respiration in titration of uncoupler ([1]; naïve CD4+ T cells, 0.5, 1, 1.5, 2, 2.5 or 3 μM, FIGS. 4A-4B): not as robust nor was there an increase in a dose-dependent manner | oxygen consumption on addition of uncoupler [2]: robust increase in oxygen consumption | maximal respiration in titration of uncoupler [3]: not as robust
